Reference: patent US12435083B2, “Cyclopropyl-(hetero)aryl-substituted ethylsulphonyl-pyridine derivatives” (BOEHRINGER INGELHEIM VETMEDICA GMBH, priority 2021, dated 2025)
Where two headings read alike, the source gives them in different places.

Tests used:
[1] = system: adult Rhipicephalus sanguineus ticks; experiment: Contact activity against adult Rhipicephalus sanguineus (coated vial, mortality at 48 h); settings: for activity against ticks (tick contact assay), in words: in vitro profiling
Description: Example 5: Screening Method to Test Contact Activity of Compounds of Formula (I) Against Adult Rhipicephalus sanguineus
Compounds of formula (I) formulated in 100% DMSO were diluted in a solution containing acetone and Triton X-100 (0.02%). The resulting formulation was used to coat the inner walls of glass scintillation vials and the filter paper covering the cap of the vial. Once dried, ten adult R. sanguineus ticks were added to the vials. The vials were incubated at 24° C., 95% relative humidity, and 12 hours of light/12 hours of dark until evaluation. Ticks were visually evaluated for mortality at 48 hours post-treatment. Compound efficacy at a given dose is expressed as percentage mortality. A dose response series was implemented to determine EC50 values.
(§1) The four structurally closest prior art compounds (A), (B), (C) and (D) specifically excluded from the scope of formula (I) were characterized vis-a-vis selected compounds of formula (I) with regard to their potency in in vitro screening assays against fleas (Ctenocehalides felis) and ticks (Rhipicephalus sanguineus).
(§2) However, as explained above, spectrum of action against this range of species (i.e. fleas and ticks) is a desirable property of ectoparasiticides for veterinary use. In the following table 1 comparative experimental data of the in vitro assays are shown regarding flea membrane feeding (ingestion, blood feeding) activity against Ctenocephalides felis and contact activity against Rhipicephalus sanguineus.

[2] = system: adult Ctenocephalides felis fleas; experiment: Ingestion activity (flea membrane feeding, blood feeding) against adult Ctenocephalides felis; settings: for activity against fleas (flea membrane feeding and flea contact assays), in words: in vitro profiling
Description: Example 6: Screening Method to Test Ingestion Activity of Compounds of Formula (I) Against Adult Ctenocephalides felis
as §1
It is important to note that compounds that show better activity versus ticks are more desirable in the animal health field, as ticks are more difficult to control than fleas. Noteworthy, in particular with regard to fleas the illustrated comparative data are based on a flea membrane feeding (ingestion, blood feeding) assay. Data from this assay are more relevant for compounds intended to be delivered systemically to an animal via oral or injectable routes. Membrane feeding assays differ to primary screening laboratory contact assays in that the latter only measure the effect of the direct contact of selected compounds on the parasite, such as the flea or the tick. The information derived from laboratory contact assays is strictly limited to the ability of the compound to be absorbed through the parasite surface and to reach its molecular target, and no information can be gleaned from these contact assays as to whether the compound would also be active when presented orally to the ectoparasite itself in a blood meal, such as with the membrane feeding assay, and certainly not when administered orally to an animal host (e.g. “in vivo”) with subsequent exposure to the ectoparasite.
as §2

Plutella xylostella = experiment: Insecticidal test on Plutella xylostella (Chinese cabbage seedling dip); settings: 144 h, 500 ppm, seedling dip, 6 days after dip treatment, read-out: activity level (corrected mortality rate), Plutella xylostella
Description: Example 12: Insecticidal Test on Plutella xylostella
The compounds of formula (I) of the present invention or salts thereof were separately dispersed in water and diluted to 500 ppm. Ten adults of Plutella xylostella were released onto Chinese cabbage seedlings and allowed to lay eggs thereon. 2 days after the release of the adults, the seedling was dipped in the dispersion for about 30 seconds. After air dried, the seedling was kept in a room at 25° C. 6 days after the dip treatment, the numbers of the dead and alive insects were counted. The corrected mortality rate was calculated according to the following formula and the insecticidal activity was evaluated according to the following criteria. Corrected mortality rate (%)=100×(Survival rate in an untreated plot−Survival rate in a treated plot)/Survival rate in an untreated plot • A: the corrected mortality rate is 100% • B: the corrected mortality rate is 90 to 99% • C: the corrected mortality rate is 80 to 89% • D: the corrected mortality rate is 50 to 79%

[3] = system: adult Ctenocephalides felis fleas; experiment: Contact activity against adult Ctenocephalides felis (treated surface, motility by machine vision, 24 h); settings: treated surface, 24h, read-out: EC80 (% motility reduction, adult C. felis, contact)
Description: Example 7: Screening Method to Test Contact Activity of Compounds of Formula (I) Against Adult Ctenocephalides felis

[4] = contact assay, >100 μM = not active at the top concentration, read-out: R. sanguineus contact activity EC50
[5] = flea membrane feeding (ingestion, blood feeding) assay, EC80
[6] = Rhipicephalus sanguineus, 48 hours post-treatment, coated vial, read-out: EC50 (percentage mortality, adult R. sanguineus, contact)
[7] = Ctenocephalides felis, bovine blood, 24h post treatment, read-out: EC80 (% motility reduction, adult C. felis, ingestion via membrane feeding)
[8] = flea membrane feeding (ingestion, blood feeding) assay, EC80, read-out: C. felis membrane feeding (ingestion/blood feeding) activity EC80
[9] = Rhipicephalus sanguineus, contact assay, >100 μM = not active at the top concentration, read-out: R. sanguineus contact activity EC50
[10] = Ctenocephalides felis, 24 h, flea membrane feeding (ingestion, blood feeding) assay, EC80, read-out: C. felis membrane feeding (ingestion/blood feeding) activity EC80

With `CCS(=O)(=O)c1cc(-c2ccc(C3CC3)nn2)cnc1-c1nc2cc(C(F)(F)C(F)(F)F)cnc2n1C` [compound 153] the EC50 [1, 4] was 10 to 100 µM and the “C. felis membrane feeding (ingestion/blood feeding) activity EC80” value [2, 5] was 1 to 10 µM.
`CCS(=O)(=O)c1cc(-c2ccc(C3(F)CC3)cc2)cnc1-c1nc2cc(C(F)(F)F)n(C3CC3)c(=O)c2n1C` [compound 124] was tested, and the EC50 [1, 4] was 10 to 100 µM and the “C. felis membrane feeding (ingestion/blood feeding) activity EC80” value [2, 5] was 1 to 10 µM.
In the case of `CCS(=O)(=O)c1cc(-c2ccc(C3(F)CC3)nc2)cnc1-c1nc2cc(C(F)(F)F)n(C3CC3)c(=O)c2n1C` [Compound 176, 5-cyclopropyl-2-[5-(ethanesulfonyl)-6′-(1-fluorocyclopropyl)-[3,3′-bipyridin]-6-yl]-3-methyl-6-(trifluoromethyl)imidazo[4,5-c]pyridin-4-one], the EC50 [1, 6] is reported as 10 to 100 µM and the EC80 [2, 7] is reported as 1 to 10 µM.
`CCS(=O)(=O)c1cc(-c2ccc(C3CC3(F)F)cc2)cnc1-c1nc2cc(C(F)(F)C(F)(F)F)nnc2n1C` (stereo not shown) [compound 135] was tested, and the EC50 [1, 4] was 10 to 100 µM and the “C. felis membrane feeding (ingestion/blood feeding) activity EC80” value [2, 5] was 1 to 10 µM.
Compound `CCS(=O)(=O)c1cc(-c2ccc(C3CC3)cc2)cnc1-n1ncc2ncc(C(F)(F)C(F)(F)F)cc21` [Compound 191, 5-(4-cyclopropylphenyl)-3-(ethanesulfonyl)-2-[6-(1,1,2,2,2-pentafluoroethyl)-1H-pyrazolo[4,3-b]pyridin-1-yl]pyridine] has a mortality at 500 ppm (Plutella xylostella) of 100%.
With `C=CCn1cc(C(F)(F)F)cc2nc(-c3ncc(-c4ccc(C5(C#N)CC5)cc4)cc3S(=O)(=O)CC)c(F)c1-2` [Compound 198, 1-{4-[5-(ethanesulfonyl)-6-[3-fluoro-4-(prop-2-en-1-yl)-6-(trifluoromethyl)pyrrolo[3,2-b]pyridin-2-yl]pyridin-3-yl]phenyl}cyclopropane-1-carbonitrile] the EC80 [2, 7] was 1 to 10 µM.
In the case of `CCS(=O)(=O)c1cc(-c2ccc(C3CC3)cc2)cnc1-n1cc2ncc(C(F)(F)F)cc2n1` [Compound 48, 5-(4-cyclopropylphenyl)-3-(ethanesulfonyl)-2-[6-(trifluoromethyl)pyrazolo[4,3-b]pyridin-2-yl]pyrid-ine], the EC80 [3] is reported as 1 to 10 µM.
`CCS(=O)(=O)c1cc(-c2ccc(C3CC3)nc2)cnc1-c1nc2cc(SC(F)(F)F)nnc2n1C` [compound 186] was tested, and the EC50 [1, 4] was < 10 µM and the EC80 [2, 8] was <1 µM.
In the case of `CCn1cc(C(F)(F)F)cc2nc(-c3ncc(-c4cccc(C5CC5)n4)cc3S(=O)(=O)CC)cc1-2` [compound 113], the mortality at 500 ppm (Plutella xylostella) is reported as 100%.
In the case of `CCS(=O)(=O)c1cc(-c2ccc(C3(C#N)CC3)cc2)cnc1-c1nc2cc(C(F)(F)F)n(C3CC3)c(=O)c2n1C` [compound 88], the EC50 [1, 4] is reported as 10 to 100 µM and the “C. felis membrane feeding (ingestion/blood feeding) activity EC80” value [2, 5] is reported as 1 to 10 µM.
With `CCS(=O)(=O)c1cc(-c2ccc(C3CC3)cc2)cnc1-c1cc2n(C(F)F)cc(C(F)(F)F)cc-2n1` [Compound 97] the EC50 [1, 9] was 10 to 100 µM, the EC80 [2, 10] was < 1 µM and the mortality at 500 ppm (Plutella xylostella) was 100%.
Work on `CCS(=O)(=O)c1cc(-c2ccc(C3CC3)cc2)cnc1-c1ncc(OCC(F)(F)C(F)(F)F)c(=O)n1C` [Compound 110, 2-[5-(4-cyclopropylphenyl)-3-(ethanesulfonyl)pyridin-2-yl]-3-methyl-5-(2,2,3,3,3-pentafluoropropoxy)pyrimidin-4-one] yielded an EC80 [3] of 1 to 10 µM.
For `CCS(=O)(=O)c1cc(-c2nccc(C3CC3)n2)cnc1-c1nc2cc(C(F)(F)C(F)(F)F)cnc2n1C` [compound 165], the EC50 [1, 4] was 10 to 100 µM and the EC80 [2, 8] was <1 µM.
With `CCS(=O)(=O)c1cc(-c2ccc(C3CC3)cc2)cnc1-c1nc2cc(C(F)(F)F)cn(CC(F)F)c-2c1F` [compound 12] the EC50 [1, 4] was 10 to 100 µM and the EC80 [2, 8] was <1 µM.
With `CCS(=O)(=O)c1cc(-c2ccc(C3(C#N)CC3)cc2)cnc1-n1ncc2ccc(C(F)(F)F)cc2c1=O` [(A), reference compound] the “activity against ticks (tick contact assay), in words” value (“activity against ticks” for short) ([1]; Rhipicephalus sanguineus) was “no activity”, the EC50 [1, 9] was > 100 µM and the EC80 [2, 10] was > 10 µM. For the same compound, the “activity against fleas (flea membrane feeding and flea contact assays), in words” value (“activity against fleas” for short) ([2]; Ctenocephalides felis) was “some activity”.
For `CCn1c(=O)c(C(F)(F)F)cc2nc(-c3ncc(-c4ccc(C5CC5)cc4)cc3S(=O)(=O)CC)n(C)c21` [compound 214, 2-[5-(4-cyclopropylphenyl)-3-(ethanesulfonyl)pyridin-2-yl]-4-ethyl-3-methyl-6-(trifluoromethyl)-3H,4H,5H-imidazo[4,5-b]pyridin-5-one], the EC80 [2, 7] was < 1 µM.
For `CCS(=O)(=O)c1cc(-c2ccc(C3CC3)cn2)cnc1-n1ncc(OCC(F)(F)C(F)(F)F)cc1=O` [(D), reference compound], the “activity against ticks” value ([1]; Rhipicephalus sanguineus) was “no activity”, the EC50 [1, 9] was > 100 µM and the EC80 [2, 10] was > 10 µM. For the same compound, the “activity against fleas” value ([2]; Ctenocephalides felis) was “some activity”.
For `CCS(=O)(=O)c1cc(-c2ccc(C3(C#N)CC3)cc2)cnc1-n1nc2ccc(C(F)(F)F)cn2c1=O` [(B), reference compound], the “activity against ticks” value ([1]; Rhipicephalus sanguineus) was “no activity”, the EC50 [1, 9] was > 100 µM and the EC80 [2, 10] was > 10 µM. The “activity against fleas” value ([2]; Ctenocephalides felis) was “some activity”.
With `CCS(=O)(=O)c1cc(-c2cc(C3CC3)nc(C)n2)cnc1-c1nc2cc(C(F)(F)C(F)(F)F)nnc2n1C` [compound 142] the EC50 [1, 4] was 10 to 100 µM and the “C. felis membrane feeding (ingestion/blood feeding) activity EC80” value [2, 5] was 1 to 10 µM.
With `CCS(=O)(=O)c1cc(-c2ccc(C3CC3)nc2)cnc1-c1nc2cc(C(F)(F)F)n(C3CC3)c(=O)c2n1C` [compound 89] the EC50 [1, 4] was 10 to 100 µM and the “C. felis membrane feeding (ingestion/blood feeding) activity EC80” value [2, 5] was 1 to 10 µM.
`CCS(=O)(=O)c1cc(-c2ccc(C3(C#N)CC3)cc2)cnc1-c1nc2cc(C(F)(F)C(F)(F)F)cnc2n1C` [compound 80] was tested, and the EC50 [1, 4] was 10 to 100 µM and the EC80 [2, 8] was <1 µM.
For `CCS(=O)(=O)c1cc(-c2ccc(C3(C#N)CC3)nc2)cnc1-c1nc2cc(C(F)(F)F)n(C3CC3)c(=O)c2n1C` [compound 133], the EC50 [1, 4] was 10 to 100 µM and the “C. felis membrane feeding (ingestion/blood feeding) activity EC80” value [2, 5] was 1 to 10 µM.
With `CCS(=O)(=O)c1cc(-c2cc(C3CC3)ccn2)cnc1-c1nc2cc3c(cc2n1C)OC(F)(F)O3` [Compound 14, 6-(4-cyclopropyl-5′-(ethylsulfonyl)-[2,3′-bipyridin]-6′-yl)-2,2-difluoro-5-methyl-5H-[1,3]dioxolo[4′,5′:4,5]benzo[1,2-d]imidazole] the EC80 [3] was 1 to 10 µM.
With `CCS(=O)(=O)c1cc(-c2nc(C)cc(C3CC3)n2)cnc1-c1nc2cc(C(F)(F)F)ncc2n1C` [(C), reference compound] the “activity against ticks” value ([1]; Rhipicephalus sanguineus) was “no activity”, the EC50 [1, 9] was > 100 µM and the EC80 [2, 10] was > 10 µM. For the same compound, the “activity against fleas” value ([2]; Ctenocephalides felis) was “some activity”.
`CCS(=O)(=O)c1cc(-c2ccc(C3CC3)cc2)cnc1-n1cc2ccc(C(F)(F)F)cc2n1` [Compound 46, 2-[5-(4-cyclopropylphenyl)-3-(ethanesulfonyl)pyridin-2-yl]-6-(trifluoromethyl)indazole] was tested, and the EC50 [1, 6] was 10 to 100 µM, the EC50 [1, 9] was 10 to 100 µM and the EC80 [2, 10] was 1 to 10 µM. The EC80 [2, 7] was 1 to 10 µM.
In the case of `CCS(=O)(=O)c1cc(-c2cccnc2C2CC2)cnc1-c1nc2cc(C(F)(F)C(F)(F)F)cnc2n1C` [compound 169], the EC50 [1, 4] is reported as 10 to 100 µM and the “C. felis membrane feeding (ingestion/blood feeding) activity EC80” value [2, 5] is reported as 1 to 10 µM.
In the case of `CCS(=O)(=O)c1cc(-c2cc(C3CC3)nc(C)n2)cnc1-c1nc2cc(C(F)(F)C(F)(F)F)cnc2n1C` [compound 166], the EC50 [1, 4] is reported as 10 to 100 µM and the EC80 [2, 8] is reported as <1 µM.
